Read-outs that look alike come from different tables or passages of the source.
How the values were obtained:
Demodex mites = experiment: in vitro assay of Demodex mite paralysis and/or killing (survival time)
Procedure: FIG. 1A-1E is a table summary of an in vitro assay of various agents on Demodex mites survival time and paralysis.
FIG. 1A-1E is a summary of various agents tested in an in vitro assay of Demodex mite paralysis and/or killing. The efficacy of various agents are evaluated in Demodex characterization and/or survival time experiments, including in terms of LT50 (time at which 50% of Demodex mites are killed) and/or associated time (in hours: min or total minutes).

[1] = oral paroxetine, rosacea; cited from earlier work
[2] = grouping of active agents in the summary, data in FIG. 1A-1E (not reproduced)

With `CNCCC=C1c2ccccc2CCc2ccccc21` [nortriptyline] the “paralyzes Demodex mites” value (Demodex mites; [2]) was “paralyzes Demodex mites”.
With `CC(C)C(=O)Oc1ccc(CO)cc1[C@H](CCN(C(C)C)C(C)C)c1ccccc1` [fesoterodine] the “paralyzes Demodex mites” value (Demodex mites; [2]) was “paralyzes Demodex mites”.
In the case of `Clc1ccc2c(c1)C(N1CCNCC1)=Nc1ccccc1O2` [amoxapine], the “paralyzes Demodex mites” value (Demodex mites; [2]) is reported as “paralyzes Demodex mites”.
In the case of `CNC1(C)C2CCC(C2)C1(C)C` (centres unmarked) [mecamylamine], the “kills Demodex mites” value (Demodex mites; [2]) is reported as “kill Demodex mites”.
For `CN(C)CCCN1c2ccccc2CCc2ccccc21` [imipramine], the “kills Demodex mites” value (Demodex mites; [2]) was “kill Demodex mites”.
With `Fc1ccc([C@@H]2CCNC[C@H]2COc2ccc3c(c2)OCO3)cc1` [paroxetine] the “onset of Demodex mite paralysis” value (Demodex mites; 1% paroxetine) was “within the first hour”, the “period of Demodex mite paralysis” value (Demodex mites; 1% paroxetine) was “at least 12 hours” and the “paralyzes Demodex mites” value (Demodex mites; [2]) was “paralyzes Demodex mites”. For the same molecule, the “patients indicative of improved clinical symptoms” value [1] was 42.9% and the tolerability [1] was “well-tolerated”.
In the case of `CC(CN1c2ccccc2Sc2ccccc21)N(C)C` (centres unmarked) [promethazine], the “kills Demodex mites” value (Demodex mites; [2]) is reported as “kill Demodex mites”.
In the case of `OC(CCN1CCCCC1)(c1ccccc1)C1CCCCC1` (centres unmarked) [trihexyphenidyl], the “paralyzes Demodex mites” value (Demodex mites; [2]) is reported as “paralyzes Demodex mites”.
In the case of `OCCOCCN1CCN(C2=Nc3ccccc3Sc3ccccc32)CC1` [quetiapine], the “paralyzes Demodex mites” value (Demodex mites) is reported as “paralyzes Demodex mites”.
In the case of `CN(C)CCOC(c1ccccc1)c1ccccc1.Cn1c(=O)c2[nH]c(Cl)nc2n(C)c1=O` [dimenhydrinate], the “paralyzes Demodex mites” value (Demodex mites; [2]) is reported as “paralyzes Demodex mites”.
With `CN(C)CCC(c1ccc(Cl)cc1)c1ccccn1` (centres unmarked) [chlorpheniramine] the “paralyzes Demodex mites” value (Demodex mites; [2]) was “paralyzes Demodex mites”.
With `COCCCC/C(=N\OCCN)c1ccc(C(F)(F)F)cc1` [fluvoxamine] the “kills Demodex mites” value (Demodex mites; [2]) was “kill Demodex mites”.
With `CN1[C@@H]2CC[C@H]1C[C@@H](OC(c1ccccc1)c1ccccc1)C2` [benztropine] the “kills Demodex mites” value (Demodex mites; [2]) was “kill Demodex mites”.
In the case of `C[N+]12CCC(CC1)C(OC(=O)C(O)(c1ccccc1)c1ccccc1)C2` (centres unmarked) [clidinium], the “paralyzes Demodex mites” value (Demodex mites; [2]) is reported as “paralyzes Demodex mites”.
For `COc1ccc2c(c1)[C@]13CCCC[C@@H]1[C@H](C2)N(C)CC3` [dextromethorphan], the “kills Demodex mites” value (Demodex mites; [2]) was “kill Demodex mites”.
With `CC(NC(C)(C)C)C(=O)c1cccc(Cl)c1` (centres unmarked) [bupropion] the “kills Demodex mites” value (Demodex mites; [2]) was “kill Demodex mites”.

— patent US20250275924A1, “Anticholinergic Agents and Muscarinic Agonists for the Treatment of Demodex Related Conditions” (ATTILLAPS HOLDINGS INC., priority 2022, published 2025)
